# From patent US5440014A, “Fibronectin binding peptide” (priority 1990, dated 1995)
# B1: Peptide S20-33 (peptide)
# peptide: QFGGHNSVDFEEDT
# How the values were obtained:
# Treponema palladium = conditions: Thomas et al., 1985b; cited from earlier work
# Trypanosoma cruzi = conditions: Ouaissi et al., 1986; cited from earlier work
# spirochetes = conditions: cited from earlier work
# Human fibronectin = Human fibronectin (human, UniProt P02751, ^125 I-labeled (chloramine T iodination)); test: synthetic peptide; inhibition of 125I-HFN binding to S. aureus 8325-4 cells
Molecule,prevention of fibronectin binding to Treponema palladium (Treponema palladium),prevention of fibronectin binding to Trypanosoma cruzi (Trypanosoma cruzi),attachment of spirochetes to cultured human cells (spirochetes),binding result (Human fibronectin)
RGDS,Binding was also prevented,Binding was also prevented,blocked the attachment,–
B1,–,–,–,no binding
